# Results from patent US20140011799A1 (Bristol-Myers Squibb Company, priority 2012, published 2014).
# Key:
# Endothelial lipase (EL) = biological target: T1, Endothelial lipase (EL) (Homo sapiens, UniProt Q9Y5X9); test: Endothelial lipase (EL) enzymatic assay, fluorescent substrate A10070 in DMPG vesicles; type: biochemical; details: EL from conditioned media of HT-1080 cells; compound preincubated 30 min at 37° C; read-out: EL IC50
# T1 construct: HT-1080 cells that were transformed using RAGE technology (Athersys) to overexpress endogenous EL; endogenous in cells; conditioned medium used
# T1 sequence (Q9Y5X9 21-500): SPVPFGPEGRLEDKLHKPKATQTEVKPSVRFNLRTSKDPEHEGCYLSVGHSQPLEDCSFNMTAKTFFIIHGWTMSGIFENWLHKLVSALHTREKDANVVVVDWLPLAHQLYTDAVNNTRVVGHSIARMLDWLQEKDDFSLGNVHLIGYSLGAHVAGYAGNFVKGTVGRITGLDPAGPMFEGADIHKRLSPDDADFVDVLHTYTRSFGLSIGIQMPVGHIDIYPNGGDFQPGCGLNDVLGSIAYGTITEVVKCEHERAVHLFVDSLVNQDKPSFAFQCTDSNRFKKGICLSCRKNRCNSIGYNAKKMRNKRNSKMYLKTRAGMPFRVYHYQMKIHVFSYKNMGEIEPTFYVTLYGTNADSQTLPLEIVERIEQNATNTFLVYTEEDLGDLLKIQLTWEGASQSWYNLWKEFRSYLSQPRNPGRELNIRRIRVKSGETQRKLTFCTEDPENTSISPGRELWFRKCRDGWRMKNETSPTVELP
# How it was run: (§1)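 Vesicles prepared: A10070 dried with DMPG, resuspended in HEPES pH 8.0/NaCl/EDTA, sonicated on ice. Enzyme incubated with compound 30 min at 37° C. Reaction started with 1:10 diluted vesicles. Fluorescence (490/530 nm) followed 60 min; slope from 300–900 secs gives rate.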
# hepatic lipase (HL) = biological target: T2, hepatic lipase (HL) (Homo sapiens, UniProt P11150); test: Hepatic lipase (HL) enzymatic assay, fluorescent substrate A10070 in DMPG vesicles; type: biochemical; details: HL partially purified from conditioned media of COS cells; compound preincubated 30 min at 37° C; read-out: HL IC50
# T2 construct: made in house; host or cells: COS cells (conditioned medium, partially purified)
# T2 sequence (P11150 23-499): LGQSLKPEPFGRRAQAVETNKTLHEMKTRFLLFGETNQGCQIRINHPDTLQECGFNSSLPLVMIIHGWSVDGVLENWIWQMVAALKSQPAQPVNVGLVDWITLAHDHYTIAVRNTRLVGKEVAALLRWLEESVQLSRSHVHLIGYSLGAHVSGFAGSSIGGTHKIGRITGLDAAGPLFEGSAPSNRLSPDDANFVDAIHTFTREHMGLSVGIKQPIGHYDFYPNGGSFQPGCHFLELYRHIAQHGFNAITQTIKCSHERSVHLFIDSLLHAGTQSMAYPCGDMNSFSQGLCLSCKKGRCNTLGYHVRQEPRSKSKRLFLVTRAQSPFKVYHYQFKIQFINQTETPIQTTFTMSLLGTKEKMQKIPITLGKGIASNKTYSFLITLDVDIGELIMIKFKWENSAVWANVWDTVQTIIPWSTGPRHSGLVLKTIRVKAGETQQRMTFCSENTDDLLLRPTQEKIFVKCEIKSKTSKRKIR
# How it was run: as §1
IC50 (Endothelial lipase (EL)) [µM],IC50 (hepatic lipase (HL)) [µM],SMILES
0.005,0.026,"Cc1noc(C)c1-c1ccc2sc(C(c3nnc(CNS(N)(=O)=O)o3)S(C)(=O)=O)nc2c1 (stereo not shown) [Example 248, N-[(5-{[5-(dimethyl-1,2-oxazol-4-yl)-1,3-benzothiazol-2-yl] (methanesulfonyl)methyl}-1,3,4-oxadiazol-2-yl)methyl] aminosulfonamide]"
0.001,0.001,"CS(=O)(=O)C(c1nnc(CNS(N)(=O)=O)o1)c1nc2cc(-c3ccccc3)ccc2s1 (stereo not shown) [Example 249, N-({5-[methanesulfonyl(5-phenyl-1,3-benzothiazol-2-yl)methyl]-1,3,4-oxadiazol-2-yl}methyl) aminosulfonamide]"
0.194,0.306,"COCCS(=O)(=O)C(c1nnc(CC(=O)NC2CC2)o1)c1nc2ccc(-c3ccc(F)nc3)cc2s1 (stereo not shown) [Example 250, N-cyclopropyl-2-(5-{[6-(6-fluoropyridin-3-yl)-1,3-benzothiazol-2-yl] (2-methoxyethanesulfonyl)methyl}-1,3,4-oxadiazol-2-yl)acetamide]"
0.009,0.021,"CS(=O)(=O)C(c1nnc(CNS(N)(=O)=O)o1)c1nc2ccc(-c3cccc(C(=O)N4CC(F)(F)C4)c3)cc2s1 (stereo not shown) [Example 251, N-{[5-({6-[3-(3,3-difluoroazetidine-1-carbonyl)phenyl]-1,3-benzothiazol-2-yl} (methanesulfonyl)methyl)-1,3,4-oxadiazol-2-yl]methyl} aminosulfonamide]"
0.01,0.022,"CS(=O)(=O)C(c1nnc(CNS(N)(=O)=O)o1)c1nc2ccc(-c3cccc(C(=O)N4CC(O)C4)c3)cc2s1 (stereo not shown) [Example 252, N-{[5-({6-[3-(3-hydroxyazetidine-1-carbonyl)phenyl]-1,3-benzothiazol-2-yl} (methanesulfonyl)methyl)-1,3,4-oxadiazol-2-yl]methyl}aminosulfonamide]"
0.007,0.062,"CS(=O)(=O)C(c1nnc(CNS(N)(=O)=O)o1)c1nc2ccc(-c3cccc(C(=O)Nc4nnc(C(F)(F)F)o4)c3)cc2s1 (stereo not shown) [Example 253, 3-{2-[methanesulfonyl({5-[(sulfamoylamino)methyl]-1,3,4-oxadiazol-2-yl})methyl]-1,3-benzothiazol-6-yl}-N-[5-(trifluoromethyl)-1,3,4-oxadiazol-2-yl] benzamide]"
0.005,0.017,"CS(=O)(=O)C(c1nnc(CNS(N)(=O)=O)o1)c1nc2ccc(-c3cccc(C(=O)N4CCC(F)(F)CC4)c3)cc2s1 (stereo not shown) [Example 254, N-{[5-({6-[3-(4,4-difluoropiperidine-1-carbonyl)phenyl]-1,3-benzothiazol-2-yl} (methanesulfonyl)methyl)-1,3,4-oxadiazol-2-yl]methyl} aminosulfonamide]"
0.002,0.046,"CS(=O)(=O)C(c1nnc(CNS(N)(=O)=O)o1)c1nc2ccc(-c3cccc(C(=O)N4CCC(O)CC4)c3)cc2s1 (stereo not shown) [Example 255, N-{[5-({6-[3-(4-hydroxypiperidine-1-carbonyl)phenyl]-1,3-benzothiazol-2-yl} (methanesulfonyl)methyl)-1,3,4-oxadiazol-2-yl]methyl} aminosulfonamide]"
0.002,0.016,"CS(=O)(=O)C(c1nnc(CNS(N)(=O)=O)o1)c1nc2ccc(-c3cccc(C(=O)Nc4nncs4)c3)cc2s1 (stereo not shown) [Example 256, 3-{2-[methanesulfonyl({5-[(sulfamoylamino)methyl]-1,3,4-oxadiazol-2-yl})methyl]-1,3-benzothiazol-6-yl}-N-(1,3,4-thiadiazol-2-yl)benzamide]"
0.01,0.029,"CS(=O)(=O)C(c1nnc(CNS(N)(=O)=O)o1)c1nc2ccc(-c3cccc(C(=O)NCCO)c3)cc2s1 (stereo not shown) [Example 257, N-(2-hydroxyethyl)-3-{2-[methanesulfonyl({5-[(sulfamoylamino)methyl]-1,3,4-oxadiazol-2-yl})methyl]-1,3-benzothiazol-6-yl}benzamide]"
0.008,0.035,"CS(=O)(=O)C(c1nnc(CNS(N)(=O)=O)o1)c1nc2ccc(-c3cccc(C(=O)NC4CCC(O)CC4)c3)cc2s1 (stereo not shown) [Example 258, N-(4-hydroxycyclohexyl)-3-{2-[methanesulfonyl({5-[(sulfamoylamino)methyl]-1,3,4-oxadiazol-2-yl})methyl]-1,3-benzothiazol-6-yl}benzamide]"
0.008,0.037,"CC(C)NC(=O)c1cccc(-c2ccc3nc(C(c4nnc(CNS(N)(=O)=O)o4)S(C)(=O)=O)sc3c2)c1 (stereo not shown) [Example 259, 3-{2-[methanesulfonyl({5-[(sulfamoylamino)methyl]-1,3,4-oxadiazol-2-yl})methyl]-1,3-benzothiazol-6-yl}-N-(propan-2-yl) benzamide]"
0.003,0.007,"CC(C)(C)CNC(=O)c1cccc(-c2ccc3nc(C(c4nnc(CNS(N)(=O)=O)o4)S(C)(=O)=O)sc3c2)c1 (stereo not shown) [Example 260, N-(2,2-dimethylpropyl)-3-{2-[methanesulfonyl({5-[(sulfamoylamino)methyl]-1,3,4-oxadiazol-2-yl})methyl]-1,3-benzothiazol-6-yl}benzamide]"
0.003,0.005,"CS(=O)(=O)C(c1nnc(CNS(N)(=O)=O)o1)c1nc2ccc(-c3cccc(C(=O)NC4CCC4)c3)cc2s1 (stereo not shown) [Example 261, N-cyclobutyl-3-{2-[methanesulfonyl({5-[(sulfamoylamino)methyl]-1,3,4-oxadiazol-2-yl})methyl]-1,3-benzothiazol-6-yl}benzamide]"
0.014,0.045,"COCCNC(=O)c1cccc(-c2ccc3nc(C(c4nnc(CNS(N)(=O)=O)o4)S(C)(=O)=O)sc3c2)c1 (stereo not shown) [Example 262, 3-{2-[methanesulfonyl({5-[(sulfamoylamino)methyl]-1,3,4-oxadiazol-2-yl})methyl]-1,3-benzothiazol-6-yl}-N-(2-methoxyethyl) benzamide]"
0.004,0.026,"CS(=O)(=O)C(c1nnc(CNS(N)(=O)=O)o1)c1nc2ccc(-c3cccc(C(=O)Nc4cccnc4)c3)cc2s1 (stereo not shown) [Example 263, 3-{2-[methanesulfonyl({5-[(sulfamoylamino)methyl]-1,3,4-oxadiazol-2-yl})methyl]-1,3-benzothiazol-6-yl}-N-(pyridin-3-yl) benzamide]"
0.019,0.037,"CS(=O)(=O)C(c1nnc(CNS(N)(=O)=O)o1)c1nc2ccc(-c3cccc(C(=O)N4CCC4)c3)cc2s1 (stereo not shown) [Example 264, N-{[5-({6-[3-(azetidine-1-carbonyl)phenyl]-1,3-benzothiazol-2-yl} (methanesulfonyl)methyl)-1,3,4-oxadiazol-2-yl]methyl}aminosulfonamide]"
0.006,0.019,"C#CCNC(=O)c1cccc(-c2ccc3nc(C(c4nnc(CNS(N)(=O)=O)o4)S(C)(=O)=O)sc3c2)c1 (stereo not shown) [Example 265, 3-{2-[methanesulfonyl({5-[(sulfamoylamino)methyl]-1,3,4-oxadiazol-2-yl})methyl]-1,3-benzothiazol-6-yl}-N-(prop-2-yn-1-yl) benzamide]"
0.013,0.094,"CS(=O)(=O)C(c1nnc(CNS(N)(=O)=O)o1)c1nc2ccc(-c3cccc(C(=O)N4CC[C@H](O)C4)c3)cc2s1 (stereo partly drawn) [Example 266, N-({5-[(6-{3-[(3S)-3-hydroxypyrrolidine-1-carbonyl]phenyl}-1,3-benzothiazol-2-yl) (methanesulfonyl)methyl]-1,3,4-oxadiazol-2-yl}methyl)aminosulfonamide]"
0.014,0.041,"COC1CN(C(=O)c2cccc(-c3ccc4nc(C(c5nnc(CNS(N)(=O)=O)o5)S(C)(=O)=O)sc4c3)c2)C1 (stereo not shown) [Example 267, N-({5-[methanesulfonyl({6-[3-(3-methoxyazetidine-1-carbonyl)phenyl]-1,3-benzothiazol-2-yl})methyl]-1,3,4-oxadiazol-2-yl}methyl)aminosulfonamide]"
